Results from patent US10550144B2, “6-aryl-9-glycosylpurines and use thereof” (UNIVERZITA PALACKEHO V OLOMOUCI, priority 2014, dated 2020).

Tests used:
[1] = test system: Harpagophytum procumbens nodal explants; assay: Micropropagation growth response with BAP, Harpagophytum procumbens; conditions: after 35 days in vitro, N = 12
[2] = test system: Gymnosporia buxifolia shoot-tip explants; assay: Shoot-tip necrosis in in vitro cultures of Gymnosporia buxifolia; conditions: after 4 weeks of culture
[3] = test system: Dais cotinifolia shoot-tip explants; assay: Shoot multiplication and shoot-tip necrosis in shoot cultures of Dais cotinifolia; type: in vivo; conditions: after 8 weeks of culture
Description: Explants were washed thoroughly with 0.1% (v/v) of Tween® 20 for 2 min, and decontaminated with 70% ethanol for 15 sec followed by 0.2% aqueous HgCl2 for 10 min. The explants were rinsed five times with sterile distilled water. […] Each value was presented as the mean±standard error, with three replicates; each replicate consisting of 15 explants per treatment.

[4] = test system: Amelanchier alnifolia nodal explants; assay: Micropropagation growth response with BAP, Amelanchier alnifolia; conditions: after 35 days in vitro, N = 9
[5] = 10 μM BAP alone (Treatment No. 2)

OC[C@H]1O[C@@H](n2cnc3c(NCc4ccccc4F)ncnc32)[C@@H](O)[C@@H]1O [Example 2FBAPA, 6-(2-fluorobenzylamino)-9-β-D-arabinofuranosylpurine]
Fresh weight (g) mean SE ([1]; 5 μM compound with 10 μM BAP): 0.8764 ± 0.1818 g | Shoot length (mm) mean SE ([1]; 5 μM compound with 10 μM BAP): 19.8 ± 3.2721 mm | Shoot no. mean SE ([1]; 5 μM compound with 10 μM BAP): 1.7 ± 0.335 | Fresh weight (g) mean SE ([1]; 10 μM compound with 10 μM BAP): 0.6712 ± 0.1149 g | Shoot length (mm) mean SE ([1]; 10 μM compound with 10 μM BAP): 23.9 ± 3.195 mm | Shoot no. mean SE ([1]; 10 μM compound with 10 μM BAP): 2.5 ± 0.477 | Fresh weight (g) mean SE ([1]; 20 μM compound with 10 μM BAP): 0.8935 ± 0.231 g | Shoot length (mm) mean SE ([1]; 20 μM compound with 10 μM BAP): 34.9 ± 5.608 mm | Shoot no. mean SE ([1]; 20 μM compound with 10 μM BAP): 2.8 ± 0.291 | Fresh weight (g) mean SE ([1]; 30 μM compound with 10 μM BAP): 0.6877 ± 0.1009 g | Shoot length (mm) mean SE ([1]; 30 μM compound with 10 μM BAP): 23.7 ± 2.937 mm | Shoot no. mean SE ([1]; 30 μM compound with 10 μM BAP): 2.4 ± 0.267 | STN [%] (shoot-tip necrosis) ([2]; 5 μM in MS medium): 66.7 ± 0.32b % | Shoot length [cm] ([2]; 5 μM in MS medium): 1.02 ± 0.15bc cm | Shoots [explant^−1] […] ([2]; 5 μM in MS medium): 1.0 ± 0.0a explant^−1 | STN [%] (shoot-tip necrosis) ([2]; 10 μM in MS medium): 58.0 ± 0.40c % | Shoot length [cm] ([2]; 10 μM in MS medium): 1.82 ± 0.13b cm | Shoots [explant^−1] […] ([2]; 10 μM in MS medium): 1.0 ± 0.0a explant^−1 | STN [%] (shoot-tip necrosis) ([2]; 20 μM in MS medium): 42.0 ± 1.20f % | Shoot length [cm] ([2]; 20 μM in MS medium): 3.20 ± 0.17a cm | Shoots [explant^−1] […] ([2]; 20 μM in MS medium): 1.0 ± 0.0a explant^−1 | STN [%] (shoot-tip necrosis) ([2]; 30 μM in MS medium): 26.6 ± 0.37h % | Shoot length [cm] ([2]; 30 μM in MS medium): 2.98 ± 0.12a cm | Shoots [explant^−1] […] ([2]; 30 μM in MS medium): 1.0 ± 0.0a explant^−1 | Morphogenesis in vitro ([3]; 5 μM in MS medium): Pale green shoots | STN [%] (shoot-tip necrosis) ([3]; 5 μM in MS medium): 33.3 ± 0.74e % | Shoot length [cm] ([3]; 5 μM in MS medium): 1.12 ± 0.12bc cm | Shoots [explant^−1] […] ([3]; 5 μM in MS medium): 1.0 ± 0.00c explant^−1 | Morphogenesis in vitro ([3]; 10 μM in MS medium): Pale green shoots | STN [%] (shoot-tip necrosis) ([3]; 10 μM in MS medium): 31.5 ± 1.18ef % | Shoot length [cm] ([3]; 10 μM in MS medium): 1.54 ± 0.16bc cm | Shoots [explant^−1] […] ([3]; 10 μM in MS medium): 1.6 ± 0.24bc explant^−1 | Morphogenesis in vitro ([3]; 20 μM in MS medium): Green shoots | STN [%] (shoot-tip necrosis) ([3]; 20 μM in MS medium): 27.7 ± 0.74g % | Shoot length [cm] ([3]; 20 μM in MS medium): 1.90 ± 0.14ab cm | Shoots [explant^−1] […] ([3]; 20 μM in MS medium): 2.0 ± 0.32b explant^−1 | Morphogenesis in vitro ([3]; 30 μM in MS medium): Green shoots | STN [%] (shoot-tip necrosis) ([3]; 30 μM in MS medium): 20.0 ± 0.44h % | Shoot length [cm] ([3]; 30 μM in MS medium): 2.40 ± 0.27a cm | Shoots [explant^−1] […] ([3]; 30 μM in MS medium): 2.3 ± 0.37b explant^−1 | Fresh weight (g) mean SE ([4]; 5 μM compound with 10 μM BAP): 0.178 ± 0.0428 g | Shoot length (mm) mean SE ([4]; 5 μM compound with 10 μM BAP): 14.33 ± 2.754 mm | Shoot no. mean SE ([4]; 5 μM compound with 10 μM BAP): 7.2 ± 1.41 | Fresh weight (g) mean SE ([4]; 10 μM compound with 10 μM BAP): 0.529 ± 0.1739 g | Shoot length (mm) mean SE ([4]; 10 μM compound with 10 μM BAP): 14.67 ± 1.291 mm | Shoot no. mean SE ([4]; 10 μM compound with 10 μM BAP): 13.2 ± 3.44 | Fresh weight (g) mean SE ([4]; 20 μM compound with 10 μM BAP): 0.492 ± 0.0593 g | Shoot length (mm) mean SE ([4]; 20 μM compound with 10 μM BAP): 19.33 ± 2.571 mm | Shoot no. mean SE ([4]; 20 μM compound with 10 μM BAP): 15.4 ± 1.62 | Fresh weight (g) mean SE ([4]; 30 μM compound with 10 μM BAP): 0.584 ± 0.1564 g | Shoot length (mm) mean SE ([4]; 30 μM compound with 10 μM BAP): 16.44 ± 2.369 mm | Shoot no. mean SE ([4]; 30 μM compound with 10 μM BAP): 14.9 ± 2.40

c1ccc(CNc2ncnc3nc[nH]c23)cc1 [BA, 6-benzylaminopurine, reference compound]
Fresh weight (g) mean SE [1, 5]: 0.3614 ± 0.05563 g | Shoot length (mm) mean SE [1, 5]: 19.4 ± 1.529 mm | Shoot no. mean SE [1, 5]: 1.5 ± 0.167 | STN [%] (shoot-tip necrosis) ([2]; 10 μM in MS medium): 73.3 ± 0.20a % | Shoot length [cm] ([2]; 10 μM in MS medium): 1.92 ± 0.09b cm | Shoots [explant^−1] […] ([2]; 10 μM in MS medium): 1.0 ± 0.0a explant^−1 | Morphogenesis in vitro ([3]; 10 μM in MS medium): Dark green shoots + SBI | STN [%] (shoot-tip necrosis) ([3]; 10 μM in MS medium): 61.5 ± 1.02a % | Shoot length [cm] ([3]; 10 μM in MS medium): 1.52 ± 0.26bc cm | Shoots [explant^−1] […] ([3]; 10 μM in MS medium): 3.4 ± 0.37a explant^−1 | Fresh weight (g) mean SE [4, 5]: 0.319 ± 0.1255 g | Shoot length (mm) mean SE [4, 5]: 17.22 ± 1.770 mm | Shoot no. mean SE [4, 5]: 7.7 ± 2.65
